One may read the pIC50 as the negative decadic logarithm of the IC50, by convention in mol/L.

The text below walks through data of PMC9664070, “The anticonvulsant phytocannabinoids CBGVA and CBDVA inhibit recombinant T-type channels” (Frontiers in Pharmacology, 2022).

pIC50: −log10 of the molar value.

Data set [1] deals with autaptic hippocampal neurons. Further details: method as in Straiker et al., 2021. Conditions: ref Straiker et al., 2021; cited from earlier work.
A short description of data set [2]: Plasma and brain exposure at anticonvulsant doses in mice (literature). To be noted: from peak plasma concentration and brain-plasma ratio. The class given is in vivo.
A further data set has as its target T1, Cav3.1 (Homo sapiens, UniProt O43497).
T1 construct: expressed in transfected cells; host or cells: HEK293 Flp-In T-REx
The experiment in a line: Whole-cell voltage-clamp electrophysiology in HEK293 Flp-In T-REx cells. The class given is cell-based. On the procedure:
All whole-cell voltage-clamp recordings from HEK293 Flp-In T-REx cells stably transfected with human Cav3.1, Cav 3.2 and Cav 3.3 were performed at room temperature. At least 24 h prior to experiments, cells were detached from flasks using trypsin/EDTA and plated into 10 cm sterile tissue culture dishes containing 10 ml of supplemented DMEM and 10–15 glass coverslips (12 mm diameter, ProScitech, QLD, Australia). Culture dishes were then kept overnight in same conditions as flasks to allow cells to adhere to coverslips. They were then transferred to a 30°C/5% CO2 incubator to inhibit cell proliferation until ready to be used for electrophysiology experiments. At this stage, channel expression was induced with tetracycline (2 μg/ml, Sigma-Aldrich) 8–24 h prior to recording cells.
External recording solutions contained (in mM): 114 CsCl, 5 BaCl2, 1 MgCl2, 10 HEPES, 10 glucose, adjusted to pH 7.4 with CsOH. The internal patch pipette solution contained (in mM): 126.5 CsMeSO4, 2 MgCl2, 11 EGTA, 10 HEPES adjusted to pH 7.3 with CsOH. Internal solution was supplemented with 0.6 mM GTP and 2 mM ATP and mixed thoroughly just before use. Liquid junction potentials for the above solutions were calculated before experiments using pClamp 10 software and corrected during experiments. Compounds were prepared daily from 30 mM DMSO stocks and diluted into an external solution just before use. Compounds were then applied rapidly and locally to the cells using a custom-built gravity-driven micro-perfusion system ([Feng et al., 2003]). […] Currents were elicited from a holding potential of -100 mV and were measured by conventional whole-cell patch clamp techniques using an Axopatch 200B amplifier in combination with Clampex 9.2 software. (Molecular Devices, Sunnyvale, CA). After establishing whole cell configuration, cellular capacitance was minimised using the amplifier’s built-in analogue compensation. Series resistance was kept to <10 MΩ and was compensated to at least 85% in all experiments. All data were digitised at 10 kHz with a Digidata 1,320 interface (Molecular Devices) and filtered at 1 kHz (8-pole Bessel filter). Raw and online leak-subtracted data were both collected simultaneously, P/N4 leak subtraction was performed using opposite polarity and after the protocol sweep.
For tonic inhibition of T-type currents, membrane potential was stepped from −100 mV to −30 mV for 200 ms and then allowed to recover for 12 s (1 sweep). A minimum of 10 sweeps were collected under vehicle control external perfusion to allow for control peak current to equilibrate. The drug was then continuously perfused, and sweeps were recorded until no further inhibition was seen (minimum of 3 sweeps with the same amplitude). In current-voltage relation studies, the membrane potential was held at −100 mV and cells were depolarised from −70 to 50 mV in 10 mV increments. For steady-state inactivation studies, a 3.6 s conditioning pre-pulse of various magnitudes (initial holding at −110 mV) was followed by a depolarising pulse to −30 mV. Individual sweeps were separated by 12 s to permit recovery from inactivation between conditioning pulses. The duration of the test pulse was typically 20 ms, and the current amplitude obtained from each test pulse was normalised to that observed at the holding potential of −100 mV.
The effect of CBGVA and CBDVA (5 µM each) on slow inactivation was tested using a 2-pulse voltage protocol as described in Bladen et al., (2021). Briefly, cells expressing Cav3.1 were initially depolarised with a 200 ms test pulse from -120 mV to −30 mV to generate peak current (P1) and followed by a 10 s pre-conditioning pulse to −80 mV to reverse fast inactivation. Cells were further depolarised with another 200 ms test pulse from −120 to −30 mV (P2) (Figure 2 inset).
THC and CBD cause substantial frequency-dependent inhibition of Cav3.2 and Nav1.8 channels, respectively ([Ross et al., 2008]; [Bladen et al., 2021]; [Zhang and Bean, 2021]). […]

T1 sequence (O43497 whole entry): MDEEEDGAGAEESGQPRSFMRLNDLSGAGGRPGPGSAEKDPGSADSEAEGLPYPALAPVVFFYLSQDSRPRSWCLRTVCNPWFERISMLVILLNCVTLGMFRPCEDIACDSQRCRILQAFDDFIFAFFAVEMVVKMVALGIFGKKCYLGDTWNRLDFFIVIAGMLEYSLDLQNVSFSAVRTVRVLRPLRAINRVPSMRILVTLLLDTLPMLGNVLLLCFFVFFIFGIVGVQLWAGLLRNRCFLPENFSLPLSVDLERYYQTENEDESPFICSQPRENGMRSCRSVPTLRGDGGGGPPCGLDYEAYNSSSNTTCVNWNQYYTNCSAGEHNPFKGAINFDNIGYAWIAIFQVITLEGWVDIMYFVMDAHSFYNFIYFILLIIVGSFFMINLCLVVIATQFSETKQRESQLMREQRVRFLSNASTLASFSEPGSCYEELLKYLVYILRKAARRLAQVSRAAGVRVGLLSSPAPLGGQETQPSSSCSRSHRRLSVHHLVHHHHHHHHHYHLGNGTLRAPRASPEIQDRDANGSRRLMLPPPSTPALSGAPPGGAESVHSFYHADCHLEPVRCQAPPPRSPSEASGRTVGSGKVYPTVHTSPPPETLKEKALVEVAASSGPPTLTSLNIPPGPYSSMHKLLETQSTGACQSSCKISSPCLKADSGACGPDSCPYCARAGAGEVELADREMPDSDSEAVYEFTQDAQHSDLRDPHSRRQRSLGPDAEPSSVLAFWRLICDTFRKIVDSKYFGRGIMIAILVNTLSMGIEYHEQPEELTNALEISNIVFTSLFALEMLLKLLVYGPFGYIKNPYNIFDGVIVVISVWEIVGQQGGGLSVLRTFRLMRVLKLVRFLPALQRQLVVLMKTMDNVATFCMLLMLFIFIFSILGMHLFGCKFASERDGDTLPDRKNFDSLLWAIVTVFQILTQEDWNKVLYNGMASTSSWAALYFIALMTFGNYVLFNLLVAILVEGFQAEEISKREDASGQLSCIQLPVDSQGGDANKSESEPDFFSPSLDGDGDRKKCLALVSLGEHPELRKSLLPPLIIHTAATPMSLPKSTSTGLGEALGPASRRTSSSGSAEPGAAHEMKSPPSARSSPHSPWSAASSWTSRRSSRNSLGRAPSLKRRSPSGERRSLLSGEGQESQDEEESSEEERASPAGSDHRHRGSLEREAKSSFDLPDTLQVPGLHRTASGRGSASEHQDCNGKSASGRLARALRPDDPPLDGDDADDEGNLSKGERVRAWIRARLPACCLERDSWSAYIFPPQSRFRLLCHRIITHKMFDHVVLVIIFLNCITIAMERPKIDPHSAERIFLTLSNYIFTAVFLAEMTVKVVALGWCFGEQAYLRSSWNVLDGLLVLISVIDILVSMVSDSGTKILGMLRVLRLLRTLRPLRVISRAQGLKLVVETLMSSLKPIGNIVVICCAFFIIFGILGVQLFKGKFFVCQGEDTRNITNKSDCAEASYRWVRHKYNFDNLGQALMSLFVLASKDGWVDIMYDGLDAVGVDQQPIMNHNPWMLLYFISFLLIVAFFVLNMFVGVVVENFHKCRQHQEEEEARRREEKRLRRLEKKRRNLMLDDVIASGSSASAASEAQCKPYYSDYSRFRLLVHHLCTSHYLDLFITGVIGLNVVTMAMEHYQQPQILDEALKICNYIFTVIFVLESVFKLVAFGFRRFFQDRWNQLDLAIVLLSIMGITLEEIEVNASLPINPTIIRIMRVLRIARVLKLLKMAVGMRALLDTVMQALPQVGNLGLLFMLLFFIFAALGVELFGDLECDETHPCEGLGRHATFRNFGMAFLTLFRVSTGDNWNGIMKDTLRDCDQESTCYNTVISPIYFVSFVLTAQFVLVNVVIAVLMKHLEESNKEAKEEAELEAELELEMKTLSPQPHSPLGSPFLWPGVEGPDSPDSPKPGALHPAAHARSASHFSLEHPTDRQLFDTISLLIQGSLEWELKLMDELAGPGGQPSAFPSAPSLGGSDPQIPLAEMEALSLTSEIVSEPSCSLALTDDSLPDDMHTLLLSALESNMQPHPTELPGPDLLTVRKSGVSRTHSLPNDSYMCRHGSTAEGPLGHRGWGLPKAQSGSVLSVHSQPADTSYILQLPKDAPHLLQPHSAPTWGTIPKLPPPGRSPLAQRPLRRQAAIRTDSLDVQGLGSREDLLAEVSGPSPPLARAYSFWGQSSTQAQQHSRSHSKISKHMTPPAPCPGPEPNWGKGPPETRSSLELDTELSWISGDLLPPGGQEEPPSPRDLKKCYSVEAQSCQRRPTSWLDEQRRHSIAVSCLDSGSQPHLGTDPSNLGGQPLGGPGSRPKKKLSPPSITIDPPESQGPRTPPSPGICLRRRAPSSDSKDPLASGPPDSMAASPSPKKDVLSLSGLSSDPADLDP

Turning to `C=C(C)[C@@H]1CCC(C)=C[C@H]1c1c(O)cc(CCC)c(C(=O)O)c1O` [CBDVA, cannabidivarinic acid], in data set [1], the “effect on excitatory neurotransmission” value is “did not alter excitatory neurotransmission”. The expected brain concentration in data set [2] is 5 µM. In addition, at Cav3.1 (5 µM compound), the “V0.5 of voltage dependence of Cav3.1 activation” value is on record as −54.7 ± 1.2 mV. For the same compound, the “half-inactivation (V0.5), steady-state inactivation of Cav3.1” value on Cav3.1 (5 µM compound) is listed as −70.9 ± 0.5 mV. Moreover, the “Cav3.1 relative current at 50th action potential, % of first” value at Cav3.1 (5 µM, 0.4 Hz stimulation) was determined as 90 ± 1%; at Cav3.1 (5 µM, 0.8 Hz stimulation), 93 ± 1%; at Cav3.1 (5 µM, 2.0 Hz stimulation), 83 ± 1%. Further, on Cav3.1 (5 µM, 2-pulse voltage protocol, after 10 s pre-conditioning pulse to −80 mV), the “inhibition of Cav3.1 peak current, second test pulse (P2), slow inactivated state” value is 45 ± 5%. The “inhibition of Cav3.1 peak current, first test pulse (P1)” value at Cav3.1 (5 µM, 2-pulse voltage protocol, before slow inactivation) was 35 ± 5%. Besides, the pIC50 at Cav3.1 (patch clamp, step −100 mV to −30 mV every 12 s, read-out: IC50, tonic inhibition of Cav3.1 current amplitude) is 5.15.
